In patent US20220160647A1, “TRANSDERMAL DRUG DELIVERY DEVICE/TRANSDERMAL PATCH AND OTHER APPLICATIONS OF EMULSION FORMULATION” (First Necessity, LLC, priority 2020, published 2022):

Experiments:
[1] = Solubility of CBD in water, MCT oil and the liposomal polymeric emulsion; assay type: physicochemical
Source text: (E. Samara and M. Bialer, Drug Metab. Dispos., 16 (6) 875-879 (1988). This provides a maximum weight/weight percent of approximately 0.07%.
In certain embodiments of the present teaching, hyaluronic acid may be present in the polymeric-emulsion disclosed herein. Such embodiments also include the presence of water. […] In the present case, this value was slightly exceeded in testing the liposomal polymeric emulsion set forth herein in combination with hyaluronic acid, water and MCT as the hydrophobic component. […] That said, the polymeric liposomal emulsion set forth herein retains the ability to dissolve water soluble compounds even when incorporating oil-soluble compounds at a relatively high percentage or amount.

[2] = accepted value (Samara and Bialer 1988); cited from earlier work
[3] = liposomal polymeric emulsion with hyaluronic acid, water and MCT

With `C=C(C)[C@@H]1CCC(C)=C[C@H]1c1c(O)cc(CCCCC)cc1O` [CBD, cannabidiol] the “concentration of CBD in stable solution” value ([1]; MCT oil) was 400000 µg/mL, the “concentration of CBD in stable solution, by weight” value ([1]; MCT oil) was 40 % by weight and the “increase in CBD solubility compared to base MCT oil” value ([1]; liposomal polymeric emulsion vs base MCT oil) was 1.125 fold. The “increase in CBD solubility compared to water” value ([1]; liposomal polymeric emulsion vs water) was “greater than 500 fold”, the “concentration of CBD in solution” value [1, 3] was 450000 µg/mL and the “concentration of CBD in solution, by weight” value [1, 3] was 45 % by weight. The “maximum weight/weight percent of CBD in water” value ([1]; pure water, worked out from 0.7 μg per mL) was “approximately 0.07%” and the “solubility of CBD in pure water” value [2] was 0.7 μg per mL.
